Test systems include U251 CNS; HCT-15 colon; HCC-2998 colon; KM12 colon; NCI/ADR-RES ovarian; NCI-H522 lung; M14 melanoma; SR leukemia; HS 578T breast; K-562 leukemia.
Assay in all cases: inhibition of tumour cell growth, NCI panel, 48 h

Molecules are shown by their SMILES.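 Cultured in 96-well plates, cells were exposed to test compound for 48 hours across five concentrations. TGI is the concentration that stops growth completely.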

These results are taken from PubChem BioAssay (NCI).

Turning to `CC(C)c1cc(C(C)C)c(B(c2ccccc2)c2ccccc2)c(C(C)C)c1Br`, the TGI with U251 CNS, with HCT-15 colon, in the assay with HCC-2998 colon, in the assay on KM12 colon, in the assay with NCI/ADR-RES ovarian and in the assay on NCI-H522 lung was greater than 100 µM in each case. Further, the TGI in the assay with M14 melanoma, in the assay on SR leukemia, in the assay on HS 578T breast and in the assay on K-562 leukemia was greater than 100 µM throughout.

As to `CC(C)(CO)Nc1c(O)c2c(c(O)c1Cl)C(=O)C=CC2=O`, the TGI in the assay on U251 CNS was found to be 3.11 µM; in the assay with HCT-15 colon it was 2.22 µM; with HCC-2998 colon, 2.75 µM; in the assay on KM12 colon it was 2.78 µM; in the assay on NCI/ADR-RES ovarian, 3.65 µM; in the assay with NCI-H522 lung, 0.928 µM. The TGI in the assay with M14 melanoma turned out to be 2.26 µM; in the assay with SR leukemia, 0.782 µM; in the assay on HS 578T breast, 3.41 µM; in the assay with K-562 leukemia, 1.78 µM.

With `O=c1[nH]c(=O)c2c([nH]1)[nH]c1ccccc12`, the TGI in the assay with HCT-15 colon, with KM12 colon, in the assay with NCI/ADR-RES ovarian, in the assay on NCI-H522 lung, in the assay on M14 melanoma and in the assay on SR leukemia was greater than 100 µM throughout. For the same molecule, the TGI with HS 578T breast and with K-562 leukemia was greater than 100 µM each time.

Turning to `CC1=NNC(N)=N/C1=C\C(Sc1ccc(Cl)cc1)c1ccc(Cl)cc1Cl` (stereo not given), the TGI is greater than 57.1 µM in the assay with U251 CNS; 30.4 µM in the assay on HCT-15 colon; 17 µM with HCC-2998 colon; 34.2 µM in the assay on KM12 colon; 39 µM in the assay with NCI/ADR-RES ovarian; 18.6 µM with NCI-H522 lung. Further, the TGI with M14 melanoma was 31.8 µM; with SR leukemia it was greater than 100 µM; with HS 578T breast it was 44.2 µM; in the assay on K-562 leukemia, 56.3 µM.

For `COc1ccc(C2CCc3c(cnc4nc(N)nc(N)c34)C2)cc1` (stereo not given), the TGI in the assay with U251 CNS is greater than 100 µM; in the assay on HCT-15 colon it was greater than 100 µM; with HCC-2998 colon, greater than 100 µM; with KM12 colon it was greater than 100 µM; in the assay with NCI/ADR-RES ovarian, greater than 100 µM; with NCI-H522 lung it was 44.9 µM. Besides, the TGI in the assay on M14 melanoma, in the assay with SR leukemia, with HS 578T breast and in the assay on K-562 leukemia was greater than 100 µM in each case.

`Clc1ccc(C2=NNC(c3cccc(Cl)c3)C2)cc1` (stereo not given): the TGI in the assay with U251 CNS was 37.5 µM; in the assay with KM12 colon it was greater than 100 µM; in the assay with NCI/ADR-RES ovarian, 89.9 µM; in the assay on NCI-H522 lung it was 14.4 µM; in the assay with M14 melanoma, greater than 100 µM; in the assay with SR leukemia it was greater than 100 µM. The TGI in the assay on HS 578T breast and with K-562 leukemia was greater than 100 µM in each case.

Turning to `C[S+](C)C1(c2ccccc2)C(=O)c2ccccc2C1=O`, the TGI in the assay on U251 CNS was greater than 66.3 µM; in the assay on HCT-15 colon it was greater than 100 µM; with HCC-2998 colon, 42.8 µM; with KM12 colon, greater than 100 µM; in the assay with NCI/ADR-RES ovarian, greater than 100 µM; in the assay on NCI-H522 lung it was greater than 68.7 µM. For the same molecule, the TGI was greater than 100 µM in the assay on M14 melanoma, greater than 100 µM in the assay on SR leukemia, 60.8 µM in the assay with HS 578T breast and greater than 100 µM in the assay on K-562 leukemia.

Consider `CN1CCN(C2CC(=O)c3c(Cl)sc(Cl)c32)CC1` (stereo not given), for which the TGI with U251 CNS is 36 µM; in the assay with HCT-15 colon, greater than 31.6 µM; in the assay with HCC-2998 colon it was 24.6 µM; in the assay with KM12 colon, 30.9 µM; with NCI/ADR-RES ovarian, greater than 59 µM; in the assay on NCI-H522 lung, 13.3 µM. The TGI is 20.7 µM in the assay on M14 melanoma, greater than 100 µM in the assay on SR leukemia, greater than 23.7 µM with HS 578T breast and greater than 100 µM in the assay on K-562 leukemia.

`COC1OC(=O)C(OC)C(OC)C1OC` (stereo not given): the TGI in the assay on U251 CNS, with HCT-15 colon, in the assay on HCC-2998 colon, with KM12 colon, in the assay on NCI/ADR-RES ovarian and in the assay with NCI-H522 lung was greater than 100 µM each time. Moreover, the TGI in the assay on M14 melanoma, with SR leukemia, with HS 578T breast and in the assay on K-562 leukemia was greater than 100 µM each time.

Regarding `Nc1nn2cc(-c3ccccc3)[n+](CC(=O)c3ccccc3)c2s1`, the TGI was 29.6 µM in the assay with U251 CNS; greater than 100 µM in the assay on HCT-15 colon; 31.7 µM in the assay with HCC-2998 colon; 47.1 µM in the assay on KM12 colon; greater than 100 µM in the assay on NCI/ADR-RES ovarian; 26.1 µM with NCI-H522 lung. The TGI was determined as 40.6 µM with M14 melanoma, 48 µM in the assay with SR leukemia, 43.6 µM with HS 578T breast and 66.7 µM with K-562 leukemia.

Take `CCOC(=O)CCN1C(=O)c2c(NC(=O)C(=O)O)cccc2S1(=O)=O`: the TGI in the assay with U251 CNS, in the assay on HCT-15 colon, with HCC-2998 colon, with KM12 colon, in the assay with NCI/ADR-RES ovarian and in the assay on NCI-H522 lung was greater than 100 µM throughout. Further, the TGI in the assay on M14 melanoma, in the assay on SR leukemia, in the assay on HS 578T breast and with K-562 leukemia was greater than 100 µM each time.

For the molecule `C[C@@H]1CC(=O)[C@@]2(C)[C@](O)(CCC3O[C@]32C)[C@@]12CC(c1ccoc1)OC2=O` (stereo not given in full), the TGI in the assay with U251 CNS, with HCT-15 colon, in the assay with HCC-2998 colon, in the assay with KM12 colon, with NCI/ADR-RES ovarian and in the assay on NCI-H522 lung was greater than 100 µM in each case. Further, the TGI with M14 melanoma is greater than 100 µM; in the assay on SR leukemia, 68.5 µM; in the assay on HS 578T breast, greater than 100 µM; in the assay on K-562 leukemia, greater than 100 µM.

Consider `CCOC(=O)C1=C(C)N(c2ccc(Cl)cc2)C2(O)C=CC(=O)C3C(=O)N(c4ccccc4)C(=O)C132` (stereo not given), for which the TGI stood at 5.39 µM with U251 CNS; 4.37 µM with HCT-15 colon; 3.52 µM in the assay with KM12 colon; 6.72 µM in the assay with NCI/ADR-RES ovarian; 2.38 µM in the assay with NCI-H522 lung; 3.29 µM in the assay with M14 melanoma. Moreover, the TGI with SR leukemia was 1.14 µM; in the assay on HS 578T breast, 12.8 µM; in the assay with K-562 leukemia, 9.03 µM.
